Measured values from PMC10807816, “Molecular mechanisms and evolutionary robustness of a color switch in proteorhodopsins” (Science Advances, 2024).

Biological target: T1, GPR (green proteorhodopsin) (uncultured marine gamma proteobacterium EBAC31A08, UniProt Q9F7P4, L105Q)
T1 construct: pET27b(+) NdeI/XhoI, C-terminal HSV tag and His6 tag kept; E. coli C43; Ni-NTA, DDM, DMPC/DMPA liposomes
Assay: solid-state NMR (DNP, CSA, 2D […]/1H/[…]) and UV-Vis
Assay type: binding
Settings: covalent; protonated Schiff base to Lys231; pH 9.0; labelled compound; called BPR

T1 sequence (Q9F7P4 18-249 L105Q): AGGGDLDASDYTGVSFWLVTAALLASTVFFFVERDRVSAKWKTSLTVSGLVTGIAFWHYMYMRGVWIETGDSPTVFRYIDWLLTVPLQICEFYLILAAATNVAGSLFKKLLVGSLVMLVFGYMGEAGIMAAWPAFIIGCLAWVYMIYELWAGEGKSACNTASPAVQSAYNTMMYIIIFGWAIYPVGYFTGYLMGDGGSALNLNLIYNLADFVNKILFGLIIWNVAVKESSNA

**Q.** With `CC1=C(/C=C/C(C)=C/C=C/C(C)=C/C=O)C(C)(C)CCC1` [all-trans retinal] as the compound, how does the “solid-state NMR (DNP, CSA, 2D 13C/1H/15N) and UV-Vis” value read?
**A.** Its value is “Notable chemical shift changes between GPR and BPR have been observed”.
